# Data published in patent US20250122218A1, “MODULATORS OF CYSTIC FIBROSIS TRANSMEMBRANE CONDUCTANCE REGULATOR” (Vertex Pharmaceuticals Incorporated, priority 2022, published 2025).
# Molecular target: T1, CFTR in F508del/MF-HBE cells (Homo sapiens, UniProt P13569, DEL508-508)
# T1 construct: human bronchial epithelial (HBE) cells derived from CF subjects heterozygous for F508del and a minimal function CFTR mutation; endogenous in cells; host or cells: primary human bronchial epithelial cells from CF subjects (F508del/MF-HBE)
# T1 sequence (P13569 with tags, fused parts or gaps DEL508-508): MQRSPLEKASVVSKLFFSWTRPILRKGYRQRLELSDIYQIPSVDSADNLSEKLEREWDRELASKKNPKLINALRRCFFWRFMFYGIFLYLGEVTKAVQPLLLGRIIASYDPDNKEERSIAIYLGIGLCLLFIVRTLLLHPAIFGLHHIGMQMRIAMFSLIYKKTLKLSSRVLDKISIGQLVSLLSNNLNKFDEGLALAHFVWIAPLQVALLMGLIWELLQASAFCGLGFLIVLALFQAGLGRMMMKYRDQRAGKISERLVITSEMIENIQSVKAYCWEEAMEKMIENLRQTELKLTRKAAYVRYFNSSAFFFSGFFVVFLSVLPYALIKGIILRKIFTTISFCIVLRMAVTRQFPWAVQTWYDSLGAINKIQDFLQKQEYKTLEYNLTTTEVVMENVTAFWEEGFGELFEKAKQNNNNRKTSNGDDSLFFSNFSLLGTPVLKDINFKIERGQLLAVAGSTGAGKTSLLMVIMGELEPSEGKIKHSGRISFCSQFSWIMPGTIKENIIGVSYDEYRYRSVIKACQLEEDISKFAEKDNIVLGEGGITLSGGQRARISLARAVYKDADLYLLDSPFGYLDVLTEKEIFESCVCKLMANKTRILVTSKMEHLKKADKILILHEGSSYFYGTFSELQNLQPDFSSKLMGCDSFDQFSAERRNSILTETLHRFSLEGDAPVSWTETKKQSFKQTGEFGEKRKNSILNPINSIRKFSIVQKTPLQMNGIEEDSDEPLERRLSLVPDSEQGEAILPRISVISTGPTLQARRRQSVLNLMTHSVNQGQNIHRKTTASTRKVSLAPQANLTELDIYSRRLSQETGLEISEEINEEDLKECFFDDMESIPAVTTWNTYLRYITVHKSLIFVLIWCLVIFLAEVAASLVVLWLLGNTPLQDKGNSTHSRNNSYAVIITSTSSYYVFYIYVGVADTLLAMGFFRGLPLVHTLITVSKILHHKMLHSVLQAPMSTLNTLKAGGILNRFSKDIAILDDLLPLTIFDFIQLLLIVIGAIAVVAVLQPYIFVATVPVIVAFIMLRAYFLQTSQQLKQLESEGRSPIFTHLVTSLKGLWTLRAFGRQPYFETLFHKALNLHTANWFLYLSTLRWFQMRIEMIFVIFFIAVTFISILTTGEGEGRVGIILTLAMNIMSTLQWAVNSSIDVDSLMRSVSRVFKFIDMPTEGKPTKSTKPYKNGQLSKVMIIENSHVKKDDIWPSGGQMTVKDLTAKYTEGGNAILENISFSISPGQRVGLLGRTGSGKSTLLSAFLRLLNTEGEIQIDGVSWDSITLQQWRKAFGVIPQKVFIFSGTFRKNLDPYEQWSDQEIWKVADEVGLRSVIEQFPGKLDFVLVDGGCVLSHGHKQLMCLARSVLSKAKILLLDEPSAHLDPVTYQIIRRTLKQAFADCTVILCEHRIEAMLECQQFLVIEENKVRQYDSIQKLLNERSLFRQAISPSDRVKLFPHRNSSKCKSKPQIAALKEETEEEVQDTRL
# Test: Ussing chamber assay of CFTR-mediated short-circuit currents (identification of potentiator compounds)
# Format: cell-based
# Details: potentiator incubated 18-24 hours at 37° C. in combination with 10 μM corrector, in the presence of 20% human serum, CFTR-mediated ISC
# Procedure, shortened: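 F508del/MF-HBE cultures were preincubated 18-24 h at 37° C with potentiator plus 10 μM of a fixed corrector compound in 20% human serum; compounds were kept present during measurement. ISC was recorded under voltage clamp (0 mV, 37° C, amiloride apical) and taken as the 20 μM forskolin peak minus the current after inhibitor cocktail.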
row,Structure (SMILES),EC50 [nM]
1,"Nc1cc(C(F)(F)F)c2nc1-c1nnc(o1)C(O)(C(F)(F)F)CCCCCc1ccccc1-2 (single isomer, unassigned) [Compound 5, 21-amino-6,19-bis(trifluoromethyl)-23-oxa-3,4,22-triazatetracyclo[16.3.1.12,5.012,17]tricosa-1(22),2,4,12,14,16,18,20-octaen-6-ol]",> 1000
2,"Nc1cc(C(F)(F)F)c2nc1-c1nnc(o1)C(O)(C(F)(F)F)CCCCCN(C(=O)C1CCC1)C2 (single isomer, unassigned) [Compound 23, [17-amino-6-hydroxy-6,15-bis(trifluoromethyl)-19-oxa-3,4,12,18-tetrazatricyclo[12.3.1.12,5]nonadeca-1(18),2,4,14,16-pentaen-12-yl]-cyclobutyl-methanone]",> 1000
3,"COC1CCCCCCC(O)(C(F)(F)F)C2=NN=C(O2)c2nc1c(C(F)(F)F)cc2N (single isomer, unassigned) [Compound 12, 17-Amino-13-methoxy-6,15-bis(trifluoromethyl)-19-oxa-3,4,18-triazatricyclo[12.3.1.12,5]nonadeca-1(18),2,4,14,16-pentaen-6-ol]",< 500
4,"Nc1cc(C(F)(F)F)c2nc1-c1nnc(o1)[C@@](O)(C(F)(F)F)CCCCCN(C1CCCC1)C2=O [Compound 100, (6R)-17-Amino-12-cyclopentyl-6-hydroxy-6,15-bis (trifluoromethyl)-19-oxa-3,4,12,18-tetrazatricyclo [12.3.1.12,5] nonadeca-1(18),2,4,14,1 6-pentaen-13-one]",< 500
5,"CC1(N2CCCCC[C@](O)(C(F)(F)F)C3=NN=C(O3)c3nc(c(C(F)(F)F)cc3N)C2=O)CC(F)(F)C1 [Compound 96, (6R)-17-Amino-12-(3,3-difluoro-1-methyl-cyclobutyl)-6-hydroxy-6,15-bis (trifluoromethyl)-19-oxa-3,4,12,18-tetrazatricyclo [12.3.1.12,5] nonadeca-1(18),2,4,14,1 6-pentaen-13-one]",< 500
6,"CC(C)(C)c1ccc(C2(N3CCCCCC(O)(C(F)(F)F)C4=NN=C(O4)c4nc(c(C(F)(F)F)cc4N)C3=O)CC2)cc1 (single isomer, unassigned) [Compound 228, 17-amino-12-[1-(4-tert-butylphenyl)cyclo-propyl]-6-hydroxy-6,15-bis(trifluoromethyl)-19-oxa-3,4,12,18-tetrazatricyclo [12.3.1.12,5] nonadeca-1(18),2,4,14,16-pentaen-13-one]",< 500
7,"Nc1cc(C(F)(F)F)c2nc1-c1nnc(o1)[C@@](O)(C(F)(F)F)CCCCCN(Cc1ccccc1OC(F)(F)F)C2=O [Compound 141, (6R)-17-amino-6-hydroxy-12-[[2-(trifluoromethoxy)phenyl]methyl]-6,15-bis (trifluoromethyl)-19-oxa-3,4,12,18-tetrazatricyclo [12.3.1.12,5] nonadeca-1(18),2,4,14,1 6-pentaen-13-one]",< 500
8,"CC[C@H](C)N1CCCCC[C@](O)(C(F)(F)F)C2=NN=C(O2)c2nc(c(C(F)(F)F)cc2N)C1=O [Compound 88, (6R)-17-Amino-6-hydroxy-12-[(1S)-1-methylpropyl]-6,15-bis (trifluoromethyl)-19-oxa-3,4,12,18-tetrazatricyclo [12.3.1.12,5] nonadeca-1(18),2,4,14,1 6-pentaen-13-one]",< 500
9,"Nc1cc(C(F)(F)F)c2nc1-c1nnc(o1)C(O)(C(F)(F)F)c1cc(ccc1F)CCCCC2=O (single isomer, unassigned) [Compound 57, 20-amino-8-fluoro-6-hydroxy-6,18-bis(trifluoromethyl)-23-oxa-3,4,21-triazatetracyclo[15.3.1.12,5.17,11]tricosa-1(21),2,4,7(22),8,10,17,19-octaen-16-one]",< 500
10,"Nc1cc(C(F)(F)F)c2nc1-c1nnc(o1)C(O)(C(F)(F)F)c1cc(ccc1F)CCCN(C1CC(F)(F)C1)C2=O (single isomer, unassigned) [Compound 203, 20-amino-15-(3,3-difluorocyclobutyl)-8-fluoro-6-hydroxy-6,18-bis(trifluoromethyl)-23-oxa-3,4,15,21-tetraazatetracyclo [15.3.1.12,5.17,11] tricosa 1(21),2,4,7(22),8,10, 17,19-octaen-16-one]",< 500
11,"Nc1cc(C(F)(F)F)c2nc1-c1nnc(o1)[C@@](O)(C(F)(F)F)CCCCCN(Cc1cccc(C3CCC3)c1)C2=O [Compound 229, (6R)-17-amino-12-[(3-cyclobutylphenyl)methyl]-6-hydroxy-6,15-bis(trifluoromethyl)-19-oxa-3,4,12,18-tetrazatricyclo [12.3.1.12,5] nonadeca-1(18),2,4,14,16-pentaen-13-one]",< 500
12,"Nc1cc(C(F)(F)F)c2nc1-c1nnc(o1)[C@@](O)(C(F)(F)F)CCCCCN(Cc1cccc3ccccc13)C2=O [Compound 110, (6R)-17-Amino-6-hydroxy-12-(1-naphthylmethyl)-6,15-bis (trifluoromethyl)-19-oxa-3,4,12,18-tetrazatricyclo [12.3.1.12,5] nonadeca-1(18),2,4,14,1 6-pentaen-13-one]",< 500
13,"CC1CCCCCCC(O)(C(F)(F)F)C2=NN=C(O2)c2nc1c(C(F)(F)F)cc2N (single isomer, unassigned) [Compound 16, 17-Amino-13-methyl-6,15-bis(trifluoromethyl)-19-oxa-3,4,18-triazatricyclo[12.3.1.12,5]nonadeca-1(18),2,4,14,16-pentaen-6-ol]",< 500
14,"N#Cc1cccc(CN2CCCCC[C@](O)(C(F)(F)F)C3=NN=C(O3)c3nc(c(C(F)(F)F)cc3N)C2=O)c1 [Compound 271, 3-[[(6R)-17-amino-6-hydroxy-13-oxo-6,15-bis(trifluoromethyl)-19-oxa-3,4,12,18-tetrazatricyclo[12.3.1.12,5]nonadeca-1(18),2,4,14,16-pentaen-12-yl]methyl]benzonitrile]",< 500

# Now from value to compound:
row,EC50 [nM],Structure (SMILES)
1,< 500,"COC1CCCCc2ccc(F)c(c2)C(O)(C(F)(F)F)C2=NN=C(O2)c2nc1c(C(F)(F)F)cc2N (stereo not drawn) [Compound 61, 20-Amino-8-fluoro-16-methoxy-6,18-bis(trifluoromethyl)-23-oxa-3,4,21-triazatetracyclo[15.3.1.12,5.17,11]tricosa-1(21),2,4,7(22),8,10,17,19-octaen-6-ol]"
2,< 500,"CC(C)CN1CCCCC(O)(C(F)(F)F)C2=NN=C(O2)c2nc(c(C(F)(F)F)cc2N)C1=O (single isomer, unassigned) [Compound 232, 16-amino-6-hydroxy-11-isobutyl-6,14-bis(trifluoromethyl)-18-oxa-3,4,11,17-tetrazatricyclo [11.3.1.12,5] octadeca-1(17),2,4,13,15-pentaen-12-one]"
3,< 500,"CC(C)(C)c1cccc(CN2CCCCC[C@](O)(C(F)(F)F)C3=NN=C(O3)c3nc(c(C(F)(F)F)cc3N)C2=O)n1 [Compound 184, (6R)-17-amino-12-[(6-tert-butyl-2-pyridyl)methyl]-6-hydroxy-6,15-bis (trifluoromethyl)-19-oxa-3,4,12,18-tetrazatricyclo [12.3.1.12,5] nonadeca-1(18),2,4,14,1 6-pentaen-13-one]"
4,< 500,"Nc1cc(C(F)(F)F)c2nc1-c1nnc(o1)C(O)(C(F)(F)F)CCCCCN(CC(F)(F)F)C2=O (single isomer, unassigned) [Compound 206, 17-amino-6-hydroxy-12-(2,2,2-trifluoroethyl)-6,15-bis(trifluoromethyl)-19-oxa-3,4,12,18-tetrazatricyclo [12.3.1.12,5] nonadeca-1(18),2,4,14,16-pentaen-13-one]"
5,< 500,"CCCc1cccc(CN2CCCCC[C@](O)(C(F)(F)F)C3=NN=C(O3)c3nc(c(C(F)(F)F)cc3N)C2=O)c1 [Compound 148, (6R)-17-amino-6-hydroxy-12-[(3-propylphenyl)methyl]-6,15-bis (trifluoromethyl)-19-oxa-3,4,12,18-tetrazatricyclo [12.3.1.12,5] nonadeca-1(18),2,4,14,1 6-pentaen-13-one]"
6,< 500,"Cc1cccc(CN2CCCCC[C@](O)(C(F)(F)F)C3=NN=C(O3)c3nc(c(C(F)(F)F)cc3N)C2=O)c1 [Compound 212, (6R)-17-amino-6-hydroxy-12-(m-tolylmethyl)-6,15-bis(trifluoromethyl)-19-oxa-3,4,12,18-tetrazatricyclo [12.3.1.12,5] nonadeca-1(18),2,4,14,16-pentaen-13-one]"
7,< 500,"Nc1cc(C(F)(F)F)c2nc1-c1nnc(o1)[C@@](O)(C(F)(F)F)CCCCCN(C13CCC(CC1)C3)C2=O [Compound 125, (6R)-17-amino-6-hydroxy-12-norbornan-1-yl-6,15-bis (trifluoromethyl)-19-oxa-3,4,12,18-tetrazatricyclo [12.3.1.12,5] nonadeca-1(18),2,4,14,1 6-pentaen-13-one]"
8,< 500,"Nc1cc(C(F)(F)F)c2nc1-c1nnc(o1)C(O)(C(F)(F)F)CCCCCCC2 (single isomer, unassigned) [Compound 2, 17-amino-6,15-bis(trifluoromethyl)-19-oxa-3,4,18-triazatricyclo[12.3.1.12,5]nonadeca-1(18),2,4,14,16-pentaen-6-ol]"
9,< 500,"CC(C)(C)N1CCCCC[C@](O)(C(F)(F)F)C2=NN=C(O2)c2nc(c(C(F)(F)F)cc2N)C1=O [Compound 85, (6R)-17-Amino-12-tert-butyl-6-hydroxy-6,15-bis(trifluoromethyl)-19-oxa-3,4,12,18-tetrazatricyclo [12.3.1.12,5] nonadeca-1(18),2,4,14,1 6-pentaen-13-one]"
10,< 500,"Nc1cc(C(F)(F)F)c2nc1-c1nnc(o1)[C@@](O)(C(F)(F)F)CCCCCN(Cc1cccc(C3CC(F)(F)C3)c1)C2=O [Compound 224, (6R)-17-amino-12-[[3-(3,3-difluorocyclobutyl)phenyl]methyl]-6-hydroxy-6,15-bis(trifluoromethyl)-19-oxa-3,4,12,18-tetrazatricyclo [12.3.1.12,5] nonadeca-1(18),2,4,14,16-pentaen-13-one]"
